Measurements: ChEMBL document CHEMBL3785045, “Design, syntheses, and anti-tuberculosis activities of conjugates of piperazino-1,3-benzothiazin-4-ones (pBTZs) with 2,7-dimethylimidazo [1,2-a]pyridine-3-carboxylic acids and 7-phenylacetyl cephalosporins” (2016)
In brackets after ≈: the same amount, converted by molar mass.

Tests used:
[1] = tested on: Mycobacterium tuberculosis; assay: Antimycobacterial activity against Mycobacterium tuberculosis H37Rv cultured in GAS medium after 4 days by microplate Alamar blue assay; assay type: functional; conditions: 96 h
[2] = tested on: Mycobacterium tuberculosis; assay: Antimycobacterial activity against Mycobacterium tuberculosis H37Rv cultured in 7H12 medium after 4 days by microplate Alamar blue assay; assay type: functional; conditions: 96 h
Micrococcus luteus [3] = assay: Antibacterial activity against Micrococcus luteus ATCC 10240; assay type: functional
Staphylococcus aureus [4] = assay: Antibacterial activity against Staphylococcus aureus SG511; assay type: functional
Bacillus subtilis [5] = assay: Antibacterial activity against Bacillus subtilis ATCC 6633; assay type: functional
Bacillus subtilis [6] = assay: Antibacterial activity against Bacillus subtilis ATCC 6633 assessed as zone of growth inhibition by agar diffusion assay; assay type: functional
Mycolicibacterium vaccae [7] = assay: Antibacterial activity against Mycobacterium vaccae IMET 10670 assessed as zone of growth inhibition by agar diffusion assay; assay type: functional
Micrococcus luteus [8] = assay: Antibacterial activity against Micrococcus luteus ATCC 10240 assessed as zone of growth inhibition by agar diffusion assay; assay type: functional
Staphylococcus aureus [9] = assay: Antibacterial activity against Staphylococcus aureus SG511 assessed as zone of growth inhibition by agar diffusion assay; assay type: functional
Mycolicibacterium vaccae [10] = assay: Antibacterial activity against Mycobacterium vaccae IMET 10670; assay type: functional
Bacillus subtilis [11] = assay: microbe, parasite or virus in culture; conditions: ATCC 6633, read-out: IZ
Description: Antibacterial activity against Bacillus subtilis ATCC 6633 assessed as zone of growth inhibition at 1.66 ug/ml by agar diffusion assay

Mycolicibacterium vaccae [12] = assay: Antibacterial activity against Mycobacterium vaccae IMET 10670 assessed as zone of growth inhibition at 1.66 ug/ml by agar diffusion assay; assay type: functional; conditions: read-out: IZ
Micrococcus luteus [13] = assay: Antibacterial activity against Micrococcus luteus ATCC 10240 assessed as zone of growth inhibition at 1.66 ug/ml by agar diffusion assay; assay type: functional; conditions: read-out: IZ
Staphylococcus aureus [14] = assay: microbe, parasite or virus in culture; conditions: SG511, read-out: IZ
Description: Antibacterial activity against Staphylococcus aureus SG511 assessed as zone of growth inhibition at 1.66 ug/ml by agar diffusion assay

Structure (SMILES) | MIC [1] | MIC [2] | MIC (Staphylococcus aureus [4]) | MIC (Bacillus subtilis [5]) | further results
CC(C)(C)OC(=O)N1CCN(c2nc(=O)c3cc(C(F)(F)F)cc([N+](=O)[O-])c3s2)CC1 | < 0.2 µM | 0.28 µM (≈ 0.129 µg/mL) | – | – | –
O=C(Cc1ccccc1)N[C@@H]1C(=O)N2C(C(=O)O)=C(CN3CCN(c4cc5c(cc4F)c(=O)c(C(=O)O)cn5C4CC4)CC3)CS[C@H]12 | – | – | 0.2 µM (≈ 0.132 µg/mL) | < 0.1 µM | MIC (Micrococcus luteus [3]): 3.13 µM (≈ 2.07 µg/mL)
Cc1ccn2c(C(=O)NCCCC(=O)OCc3ccccc3)c(C)nc2c1 | > 10 µM | 5.85 µM (≈ 2.14 µg/mL) | – | – | –
CC(C)(C)OC(=O)C1=C(COC(=O)OC(Cl)C(Cl)(Cl)Cl)CS[C@@H]2[C@H](NC(=O)Cc3ccccc3)C(=O)N12 (stereo partly specified) | 22.2 µM (≈ 13.7 µg/mL) | > 50 µM | – | – | –
Cc1ccn2c(C(=O)N3CCN(c4nc(=O)c5cc(C(F)(F)F)cc([N+](=O)[O-])c5s4)CC3)c(C)nc2c1 | 1.43 µM (≈ 0.761 µg/mL) | 2.1 µM (≈ 1.12 µg/mL) | – | – | –
Cc1ccn2c(C(=O)NCCC(=O)OCc3ccccc3)c(C)nc2c1 | > 10 µM | > 10 µM | – | – | –
O=C(Cc1ccccc1)N[C@@H]1C(=O)N2C(C(=O)O)=C(COC(=O)N3CCN(c4nc(=O)c5cc(C(F)(F)F)cc([N+](=O)[O-])c5s4)CC3)CS[C@H]12 | 12 µM (≈ 8.79 µg/mL) | 4.63 µM (≈ 3.4 µg/mL) | 12.5 µM (≈ 9.18 µg/mL) | 0.8 µM (≈ 0.588 µg/mL) | inhibition zone (IZ) (Bacillus subtilis [6]): 41 mm; inhibition zone (IZ) (Mycolicibacterium vaccae [7]): 48 mm; inhibition zone (IZ) (Micrococcus luteus [8]): 24 mm; inhibition zone (IZ) (Staphylococcus aureus [9]): 27 mm; MIC (Mycolicibacterium vaccae [10]): 0.2 µM (≈ 0.147 µg/mL)
O=C(Cc1ccccc1)N[C@@H]1C(=O)N2C(C(=O)O)=C(CN3CCN(c4nc(=O)c5cc(C(F)(F)F)cc([N+](=O)[O-])c5s4)CC3)CS[C@H]12 | 48.9 µM (≈ 33.8 µg/mL) | 86.8 µM (≈ 60 µg/mL) | 0.4 µM (≈ 0.276 µg/mL) | < 0.003 µM | inhibition zone (IZ) (Bacillus subtilis [6]): 41 mm; inhibition zone (IZ) (Mycolicibacterium vaccae [7]): 33 mm; inhibition zone (IZ) (Micrococcus luteus [8]): 48 mm; MIC (Micrococcus luteus [3]): 1.56 µM (≈ 1.08 µg/mL); inhibition zone (IZ) (Staphylococcus aureus [9]): 32 mm; MIC (Mycolicibacterium vaccae [10]): 12.5 µM (≈ 8.63 µg/mL)
COc1ccc(COC(=O)C2=C(CN3CCN(c4nc(=O)c5cc(C(F)(F)F)cc([N+](=O)[O-])c5s4)CC3)CS[C@@H]3[C@H](NC(=O)Cc4ccccc4)C(=O)N23)cc1 | > 100 µM | > 100 µM | 1.56 µM (≈ 1.26 µg/mL) | 0.1 µM (≈ 0.0811 µg/mL) | inhibition zone (IZ) (Bacillus subtilis [6]): 36 mm; inhibition zone (IZ) (Mycolicibacterium vaccae [7]): 24 mm; inhibition zone (IZ) (Micrococcus luteus [8]): 24 mm; inhibition zone (IZ) (Staphylococcus aureus [9]): 37 mm
Cc1ccn2c(C(=O)NCCCC(=O)N3CCN(c4nc(=O)c5cc(C(F)(F)F)cc([N+](=O)[O-])c5s4)CC3)c(C)nc2c1 | > 10 µM | > 10 µM | – | – | –
Cc1ccn2c(C(=O)NCCC(=O)N3CCN(c4nc(=O)c5cc(C(F)(F)F)cc([N+](=O)[O-])c5s4)CC3)c(C)nc2c1 | > 10 µM | > 10 µM | – | – | –
CC(C)(C)OC(=O)C1=C(COC(=O)N2CCN(c3nc(=O)c4cc(C(F)(F)F)cc([N+](=O)[O-])c4s3)CC2)CS[C@@H]2[C@H](NC(=O)Cc3ccccc3)C(=O)N12 | 63.5 µM (≈ 50.2 µg/mL) | 1.49 µM (≈ 1.18 µg/mL) | – | – | –
Cc1ccn2c(C(=O)NCc3ccc(C(=O)OCc4ccccc4)cc3)c(C)nc2c1 | 4.1 µM (≈ 1.7 µg/mL) | 0.21 µM (≈ 0.0868 µg/mL) | – | – | –
Cc1ccn2c(C(=O)NCc3ccc(C(=O)N4CCN(c5nc(=O)c6cc(C(F)(F)F)cc([N+](=O)[O-])c6s5)CC4)cc3)c(C)nc2c1 | > 10 µM | > 10 µM | – | – | –
CC(C)(C)OC(=O)C1=C(CN2CCN(c3nc(=O)c4cc(C(F)(F)F)cc([N+](=O)[O-])c4s3)CC2)CS[C@@H]2[C@H](NC(=O)Cc3ccccc3)C(=O)N12 | 1.51 µM (≈ 1.13 µg/mL) | 2.03 µM (≈ 1.52 µg/mL) | 12.5 µM (≈ 9.33 µg/mL) | 1.56 µM (≈ 1.16 µg/mL) | inhibition zone (IZ) (Bacillus subtilis [6]): 27 mm; inhibition zone (IZ) (Mycolicibacterium vaccae [7]): 29 mm; inhibition zone (IZ) (Micrococcus luteus [8]): 13 mm; inhibition zone (IZ) (Staphylococcus aureus [9]): 23 mm; MIC (Mycolicibacterium vaccae [10]): 0.8 µM (≈ 0.597 µg/mL)
C[C@H]1COC2(CCN(c3nc(=O)c4cc(C(F)(F)F)cc([N+](=O)[O-])c4s3)CC2)O1 [BTZ-043] | < 0.004 µM | < 0.004 µM | > 200 µM | – | MIC (Micrococcus luteus [3]): > 200 µM; MIC (Mycolicibacterium vaccae [10]): 0.03 µM (≈ 0.0129 µg/mL)
O=C(O)c1cn(C2CC2)c2cc(N3CCNCC3)c(F)cc2c1=O [CIPROFLOXACIN] | – | – | – | 0.15 µM (≈ 0.0497 µg/mL) | zone of inhibition at 1.66 µg/mL (Bacillus subtilis [11]): 20 mm; zone of inhibition at 1.66 µg/mL (Mycolicibacterium vaccae [12]): 17 mm; zone of inhibition at 1.66 µg/mL (Micrococcus luteus [13]): 0 mm; zone of inhibition at 1.66 µg/mL (Staphylococcus aureus [14]): 20 mm
CO[C@H]1/C=C/O[C@@]2(C)Oc3c(C)c(O)c4c(O)c(c(/C=N/N5CCN(C)CC5)c(O)c4c3C2=O)NC(=O)/C(C)=C\C=C\[C@H](C)[C@H](O)[C@@H](C)[C@@H](O)[C@@H](C)[C@H](OC(C)=O)[C@@H]1C [RIFAMPIN] | 0.04 µM (≈ 0.0329 µg/mL) | 0.05 µM (≈ 0.0411 µg/mL) | – | – | –
